Row | Compound | melting point
1 | CCCCOC(=O)C1CC(n2cnc3c(Cl)ncnc32)C(O)C1O (configuration not stated) | 104 to 106 °C
2 | c1ccn2c(=Nc3nccs3)snc2c1 | 169 to 171 °C
3 | COc1ccc(C(=O)Nc2nc3ccc([N+](=O)[O-])cc3c(NCc3cccs3)c2C#N)cc1 | 217 to 220 °C
4 | CNC(=O)Oc1ccc(NC(=O)C(C)Cl)c(C)c1 (configuration not stated) | 167 to 170 °C
5 | O=C(O)c1cc(-n2c(-c3ccccc3)cc3c2CCc2cc(Cl)ccc2-3)ccc1O | 249 to 251 °C
6 | CC(=O)Nc1ccc(NC(=O)OCc2ccccc2)c(O)c1 | 205 °C
7 | COc1ccc(N2CCOCC2)c2sc(NC(=O)NC3CCCC3)nc12 | 191 to 194 °C
8 | O=C(O)[C@@H]1CSCN1C(=O)CCc1ccccc1 | 93 to 95 °C
9 | COc1cc2scc(C(=O)Nc3cccnc3)c2cc1Br | 160 to 161 °C
10 | CC(C)(C)c1cc(CCc2ccccc2NC(=O)NCCCc2cccs2)cc(C(C)(C)C)c1O | 150 °C
11 | NS(=O)(=O)c1sccc1C(F)=C(F)Cl | 112 to 116 °C
12 | COC(=O)/C=C(\C)c1ccc(OCc2nc(-c3ccccc3)oc2C)cc1 | 125 to 126 °C
13 | CCOC(=O)c1csc(N2N=C(c3ccc([N+](=O)[O-])cc3)c3cc4c(cc3CC2C)OCO4)n1 (configuration not stated) | 242 to 243 °C
14 | Cc1cccc(NC(=O)NC2N=C(C3CC3)c3cccc(C)c3N(CC(=O)N3CCCCCCC3)C2=O)c1 (configuration not stated) | 178 to 179 °C
15 | CN(C)C(=O)c1cc2c(OC[C@@H](O)CN3CCC(c4ccc5ccccc5c4)CC3)cccc2n1C | 146 to 148 °C
16 | CC(O)c1cc2c(c(Cl)n1)OCC2C (configuration not stated) | 67 to 68 °C
17 | Cc1cc(=S)c(OCC(=O)O)co1 | 120 to 125 °C
18 | CCc1[nH]n(C2CCCC2)c2nc(Cc3cccc(O)c3)nc(=O)c1-2 | 195 to 197 °C
19 | Ic1ccc2c(c1)C(c1ccccc1)=NCc1nnc(Cc3ccccc3)n1-2 | 200 to 201 °C
20 | CC(C)(C)c1ccc(-c2cc(=O)cc(N3CCOCC3)o2)cc1 | 156 °C
21 | COc1ccc(COc2ccc(C(=O)C3=C(O)C(=O)N(c4ccc(C)nn4)C3c3ccc(OC(F)(F)F)cc3)cc2)cc1 (configuration not stated) | 206 to 209 °C
22 | N#Cc1ccc(NC(=N)Nc2ccc(C#N)cc2)cc1 | 195 to 200 °C
23 | O=C(O)C1c2ccccc2COc2ccc(C(F)(F)F)cc21 (configuration not stated) | 258 to 260 °C
24 | O=C1N(Cc2ccc(C(F)(F)F)o2)c2cc3c(cc2C12COc1cc4c(cc12)CCO4)OCCO3 (configuration not stated) | 189 to 191 °C
25 | COC(=O)C(C)Oc1ccc(Oc2ccc3ccccc3n2)cc1 (configuration not stated) | 95 to 100 °C

Row | Compound | melting point
26 | O=C(NCC12CC3CC(CC(C3)C1)C2)c1cc(CC[C@H](O)CO)ccc1Cl | 145 to 147 °C
27 | O=C(O)COc1ccc(C(=C2SCCCS2)c2ccccc2)cc1 | 176 to 177 °C
28 | CN1C(=S)N(C)C2(c3ccccc3)CCCN12 (configuration not stated) | 83 to 85 °C
29 | CCOC(=O)c1cc(=O)cc(-c2ccc(OC)cc2)o1 | 131 to 133 °C
30 | COc1ccc2c(c1)C(=O)NC(C(Cl)(Cl)Cl)O2 (configuration not stated) | 162 to 165 °C
31 | O=C1NCCN=C1c1ccc([N+](=O)[O-])cc1 | 191 to 192 °C
32 | O=C(O)c1cc(Cl)cc2c1OCCO2 | 180 °C
33 | CN(Cc1cccc2c1CN(C1CCC(=O)NC1=O)C2=O)C(=O)Nc1ccc2ccccc2c1 (configuration not stated) | 216 to 218 °C
34 | COC(=O)c1cnc(N2CCN(CC3CC3)C2=O)s1 | 124 to 126 °C
35 | O=C(O)C1=Cc2cc(C(F)(F)C(F)(F)F)ccc2OC1C(F)(F)F (configuration not stated) | 162 to 165 °C
36 | N#Cc1ccc(CN2C(=O)C3(COc4cc5c(cc43)CCO5)c3ccccc32)cc1 (configuration not stated) | 69 to 71 °C
37 | O=C(Nc1cc(Cl)c(N2CCNCC2)c(Cl)c1)c1ccc(F)c(OCc2cccnc2)c1 | 81 to 85 °C
38 | CCOP(=O)(OCC)C(OS(=O)(=O)c1ccc(C)cc1)c1cccc([N+](=O)[O-])c1 (configuration not stated) | 90 to 92 °C
39 | COC(=O)c1ccc(-c2cccc(OCc3ccc(COC(=O)c4ccccc4)c(COC(=O)c4ccccc4)c3)c2)cc1 | 71 to 72 °C
40 | COC(=O)COc1ccc2cc3c(c(-c4ccc(OC)cc4)c2c1)CNC3=O | 202 to 203 °C
41 | CC(C)N(C(C)C)P(N)(N)=S | 93 to 98 °C
42 | COCC1CN(c2ccc(C3CCC(OC(=O)c4ccccc4C4=NCCO4)CC3)cc2)C(=O)O1 (racemic) | 182 to 184 °C
43 | CS(=O)(=O)c1ccc(-c2cnn(Cc3ccccc3)c(=O)c2-c2ccc(F)c(Cl)c2)cc1 | 134 to 136 °C
44 | NC(=O)c1cc2ccc(OCC(O)CCl)cc2o1 (configuration not stated) | 109 to 110 °C
45 | CSC(SC)c1cnn(-c2c(Cl)cc(C(F)(F)F)cc2Cl)n1 | 67 to 68 °C
46 | O=C(CCN1CCCC1)Nc1cc(-c2nnc(SCc3cccc(F)c3)o2)ccn1 | 114 to 115 °C
47 | O=Cc1ccc2c(=O)c3ccccc3ccc2c1 | 149 to 152 °C
48 | CCOC(=O)NC(=O)C(C#N)=CNNc1ccc(OC(F)F)cc1 | 144 to 146 °C
49 | c1ccc(N(c2ccccc2)c2ccc(-c3ccc(-c4ccnc(Nc5ccc6ccccc6c5)n4)cc3)cc2)cc1 | > 300 °C
50 | CC(C)c1nc(CN2C(=O)C3(COc4cc5c(cc43)OCCO5)c3ccccc32)cs1 (configuration not stated) | 60 to 63 °C

Row | Compound | melting point
51 | Cc1cccc([N+](=O)[O-])c1-c1c(C)cccc1[N+](=O)[O-] | 107 to 108 °C
52 | CCCCC(=O)N[C@@H]1CN2C(=O)N(c3cc(Cl)nc(Cl)c3)C(=O)[C@@]2(Cc2ccc(OC(F)(F)F)cc2)C1 | 66.8 °C
53 | CCOC(=O)c1nccn1C1Cc2c(cccc2-c2ccccc2)C1=O (configuration not stated) | 185 °C
54 | CCCCn1cc(C(=O)O)c(=O)c2oc3ccc(Cl)cc3c(=O)c21 | 271 to 273 °C
55 | CS(=O)(=O)c1ccc(-c2cnn(-c3cccs3)c(=O)c2-c2ccc(F)cc2)cc1 | 215 to 217 °C
56 | Cc1noc(=O)n1C/C(F)=C\CCI | 58.1 to 58.6 °C
57 | COc1ccc(CN2C(=O)CNS2(=O)=O)cc1 | 111 to 113 °C
58 | Cc1cc(C#Cc2cccc(-c3ccccc3)c2)ccn1 | 56 to 58 °C
59 | CCOC(=O)c1c(N)c(C)c(C)n1C | 63 to 64 °C
60 | CCCC(Cl)(Cl)C(NC(=O)c1ccc(Cl)cc1)Nc1c(Nc2cccnc2)c(=O)c1=O (configuration not stated) | 258 to 259 °C
61 | Nc1ccc(CC(NC(=O)CCCCCCCCCCNC(=O)C(c2ccccc2)c2ccccc2)c2ccccc2)cc1 (configuration not stated) | 96 to 102 °C
62 | N#CC(C#N)=C1C(=O)Nc2ccc(S(=O)(=O)N3CCCC3COc3ccccc3)cc21 (configuration not stated) | 246 to 248 °C
63 | COc1ccc(OC)c(C(=O)/C=C/c2ccc3c(c2)OCO3)c1 | 101 °C
64 | O=C(c1ccc(N2CCCC2)cc1)C1CCN(Cc2ccccc2)CC1 | 154 to 156 °C
65 | CC(C)c1cc(C(=O)O)cc(C(C)C)c1O | 147 °C
66 | CN(C)C1(Cc2ccccc2)CCC(c2[nH]c3ccccc3c2CC2CCCCC2)CC1 (configuration not stated) | 120 to 126 °C
67 | CCOC(=O)Cn1c(=O)c(=O)[nH]c2cc(C(F)(F)F)c(N)cc21 | > 250 °C
68 | CCOC(=O)CCc1cc(Cl)ccc1C(=O)CCCNC(N)=O | 127 to 129 °C
69 | CC(Cl)(Cl)C(NC(=O)c1cccc(Cl)c1)NC(=N[N+](=O)[O-])Nc1cccnc1 (configuration not stated) | 160 to 161 °C
70 | Cc1nc(N)nc(N)c1-c1cc(I)ccc1Cl | 232 to 234 °C
71 | O=c1cc2c(nn1-c1ccc(Cl)cc1)-c1cc(CO)sc1CCC2 | 118 to 121 °C
72 | CC1(C)C=C(c2ccccn2)c2cc(F)c(F)cc2OC1 | 86 °C
73 | O=C(OCc1ccccc1)N1CCc2c(sc3nc(CN4C(=O)CCC4=O)c(Cl)c(-c4ccc(C(F)(F)F)cc4)c23)C1 | 201 to 202 °C
74 | CC1NC(=O)NN=C1c1ccc(N)cc1 (configuration not stated) | 248 to 250 °C
75 | COc1ccc2ccc(N3C(=O)c4ccccc4C3NCCCN(C)C)nc2n1 (configuration not stated) | 128 °C

Row | Compound | melting point
76 | CS(=O)(=O)Nc1cc2c(cc1Oc1ccc(F)cc1F)C(=O)CCO2 | 164 to 165 °C
77 | CC(C)(C)OC(=O)N[C@H](CO)Cc1ccc(-c2ccccc2)cc1 | 116 °C
78 | CC(=O)SCC(Cc1ccccc1)C(=O)Nc1cccc(C(=O)O)c1 (configuration not stated) | 169 to 170 °C
79 | CCN1CCc2ccc(Nc3ncc(C(F)(F)F)c(Nc4ccccc4C(=O)NC)n3)cc2CC1 | 226 °C
80 | Cc1cc(N2CCc3ncccc3C2)nc(N2CCC(F)(F)CC2)c1[N+](=O)[O-] | 168 to 169 °C
81 | COc1ccc(C(=O)c2ccc(OCc3nc(-c4ccccc4)oc3C)cc2)c(OCC(=O)O)c1 | 146 to 147 °C
82 | CC(C)Nc1ncnc2sc([N+](=O)[O-])cc12 | 200 °C
83 | Nc1nc(Nc2ccc(S(N)(=O)=O)cc2)sc1C(=O)c1ccc(C(=O)Oc2ccccc2)cc1 | > 300 °C
84 | CCOC(=O)C1=Cc2cc(C(F)F)ccc2OC1C(F)(F)F (configuration not stated) | 135 to 136 °C
85 | O=C(NCc1ccc(Cl)cc1)c1cn2c(CO)cc3cccc(c1=O)c32 | 211 to 213 °C
86 | COC(=O)C1CCCN(COS(C)(=O)=O)c2c1cc(OCc1ccccc1)c1ccccc21 (configuration not stated) | 130 to 132 °C
87 | CC(C)(C)OC(=O)C1(ON=C(C(=O)O)c2ccco2)CCCC1 | 107 °C
88 | COC(=O)C1=C(C)Nc2c(c(C)nn2C)C1c1cccc([N+](=O)[O-])c1 (configuration not stated) | 163 to 166 °C
89 | COC(=O)c1c(C(=O)OC)c(-c2ccc(OC)c(OC)c2)c2sccc2c1O | 147 to 148 °C
90 | COc1nc(CNC(=O)NS(=O)(=O)c2ccccc2S(=O)(=O)N(C)C)nc(OC)n1 | 183 to 189 °C
91 | CSc1ncc2c(Cl)ccn2n1 | 107 to 108 °C
92 | Cc1ccccc1Nc1nc(O)c2sccc2n1 | 243 to 245 °C
93 | CC(=O)C(C)(O)c1ccc(O)cc1 (configuration not stated) | 101 to 102 °C
94 | O=C(O)C=Cc1cc(N2CCNCC2)ccc1[N+](=O)[O-] | 229 to 237 °C
95 | CCOP(=O)(CNc1cc(Oc2ccc(C(F)(F)F)cn2)ccc1[N+](=O)[O-])OCC | 74 to 76 °C
96 | Clc1nc(NCc2ccc(-c3ccccn3)cc2)c2[nH]cnc2n1 | > 250 °C
97 | CC(C)n1nc(-c2nc(C(N)=O)c(N)nc2-c2cccs2)ccc1=O | 238 to 240 °C

Reference: a melting point compilation (Tetko et al.; mined from patent text by program, amines drawn as free bases though some values may be those of a salt)
